Measured values published in US20230065562A1, “DUAL CONTROLS FOR THERAPEUTIC CELL ACTIVATION OR ELIMINATION” (Bellicum Pharmaceuticals, Inc., priority 2015, published 2023).

What was measured:
cells = test: AP1903 amount needed in vitro for effective signaling of cells; assay type: cell-based
Procedure: This equates to 16-160 μg/L or […] (1.6-160 μg/kg).

[1] = cited from earlier work
293 cells = test: SEAP assay: FRB-tagged CAR plus iCaspase-9 in 293 cells; assay type: cell-based; settings: iCaspase-9
Description: FIGS. 6A and 6B provide the results of an assay of two-tiered activation of apoptosis.
As a proof of principal, two tandem FRB, domains were fused to either a 1st generation Her2-CAR or to a 1st generation CD19-CAR co-expressing inducible Caspase-9. 293 cells were transiently transfected with a constitutive reporter plasmid, SRα-SEAP, along with normalized levels of expression plasmids encoding Her2-CAR-FRB2, iCaspase-9, Her2-CAR-FRBl2+iCasp9, iC9-CAR(19).FRBl2 (coexpressing both CD19-CAR-FRBl2 and iCaspase9), or control vector. […] After overnight incubation with drugs, SEAP activity was determined. […] This dose-dependent decrease required the presence of both the FRB-tagged CAR and the FKBP-tagged Caspase-9. […] Moreover, on- or off-target-mediated CAR clustering should increase the sensitivity of killing primarily at the site of scFv engagement.

[2] = tested on: CD3+ΔCD19+ (iCasp9+) T cells; test: CASPALLO phase 1 clinical trial: AP1903 in patients with GvHD after iCasp9+ T cells; settings: human, in vivo
human CD3+CD19+ T cells = test: AP1903 dose-dependent elimination in vivo of iCasp9-transduced T cells; set-up: species or system immune deficient mice (NSG); settings: mouse
Procedure: The Caspase-9 polypeptide has a dose-response curve in vivo, which could be used to eliminate a variable fraction of T cells expressing the Caspase-9 polypeptide.
T cells were transduced with SFG-iCasp9-D330E-2A-ΔCD19 retrovirus and injected i.v. into immune deficient mice (NSG). […] After an additional 24 hours, mice were sacrificed and lymphocytes from the spleen (A) were isolated and analyzed by flow cytometry for the frequency of human CD3^+CD19^+ T cells.

SMILES: CC[C@H](C(=O)N1CCCC[C@H]1C(=O)O[C@H](CCc1ccc(OC)c(OC)c1)c1cccc(OCC(=O)NCCNC(=O)COc2cccc([C@@H](CCc3ccc(OC)c(OC)c3)OC(=O)[C@@H]3CCCCN3C(=O)[C@@H](CC)c3cc(OC)c(OC)c(OC)c3)c2)c1)c1cc(OC)c(OC)c(OC)c1 (relative stereo) [AP1903, 2-Piperidinecarboxylic acid, 1-[(2S)-1-oxo-2-(3,4,5-trimethoxyphenyl)butyl]-, 1,2-ethanediylbis[imino(2-oxo-2,1-ethanediyl)oxy-3,1-phenylene[(1R)-3-(3,4-dimethoxyphenyl)propylidene]] ester, [2S-[1(R*),2R*[S*[S*[1(R*),2R*]]]]]-(9C1)]
- amount needed in vitro for effective signaling of cells (cells): 10 to 100 nM
- safety and tolerability in healthy volunteers ([1]; 0.01-1.0 mg/kg, listed as API 903): No significant adverse effects
- adverse event considered possibly related to AP1903 ([1]; 1 volunteer at 1.0 mg/kg): vasodilatation
- plasma level, % of maximal concentration at 2 hours post-dose ([1]; IV infusion over 2 hours): ~7%
- plasma level, % of maximal concentration at 10 hours post-dose ([1]; IV infusion over 2 hours): ~1%
- serious adverse events ([1]; Phase 1 study in volunteers): No serious adverse events
- well-tolerated doses ([1]; Phase 1 study): up to 1 mg/kg
- SEAP activity, % of normal levels (293 cells): about 20%
- further reduction of CD3+ΔCD19+ cells within 24 hours [2]: further log reduction
- time to resolution of skin and liver aGvHD [2]: ≤ 24 h
- dose sufficient to eliminate most modified T cells in vivo (human CD3+CD19+ T cells): 0.5 mg/kg
